For the series the following is noted: pampa; 60.0 min; 50.0 µM.
Broadly, the Papp is a coefficient for how fast a substance crosses the barrier. In the case of `COCCNC(=O)c1ccc(-c2ncc3cnc(-c4cccc(F)c4)cn23)cc1`, the Papp was 95 ×10⁻⁶ cm/s.
Then `O=C1CCCC2=C1C(c1[nH]ncc1Cl)N=C(Nc1nc3ccccc3o1)N2` (stereo not given), with 275 ×10⁻⁶ cm/s; and `CC=CC1=C(C(=O)O)N2C(=O)[C@@H](NC(=O)[C@H](N)c3ccc(O)cc3)[C@H]2SC1`, with 282 ×10⁻⁶ cm/s; and `CO/N=C(/C(=O)N[C@@H]1C(=O)N2C(C(=O)O)=CCS[C@H]12)c1csc(N)n1`, with under 1 ×10⁻⁶ cm/s.
Then `O=C1CCc2ccc(OCCCCN3CCN(c4cccc(Cl)c4Cl)CC3)cc2N1`, with 19 ×10⁻⁶ cm/s; and `CC1=C(C(=O)O)N2C(=O)[C@@H](N)[C@H]2SC1`, with under 1 ×10⁻⁶ cm/s; and `Cn1nnnc1Sc1ncnc2scc(-c3ccc(C(F)(F)F)cc3)c12`, with over 300 ×10⁻⁶ cm/s.
Then `O=C(CCl)Nc1cccc(NC2=NS(=O)(=O)c3ccccc32)c1`, with 5.9 ×10⁻⁶ cm/s; and `N=c1c2c(-c3ccccc3)c(-c3ccccc3)n(CCc3ccccc3)c2ncn1CC1CCCO1` (stereo not given), with 269 ×10⁻⁶ cm/s.
In the case of `Cn1nnnc1SCC1=C(C(=O)O)N2C(=O)[C@@H](NC(=O)[C@H](OC=O)c3ccccc3)[C@H]2SC1`, the Papp is under 1 ×10⁻⁶ cm/s.
The figure for `O=C(/C=C\n1cnc(-c2cc(C(F)(F)F)cc(C(F)(F)F)c2)n1)N1CC(F)(F)C1` is 121 ×10⁻⁶ cm/s; for `COc1ccc(C)cc1Nc1c2c(nc3ccccc13)CCC2` it is 215 ×10⁻⁶ cm/s; for `CCN(CC)CCNc1ccc2ncn3c4ccc(O)cc4c(=O)c1c23` it is 17 ×10⁻⁶ cm/s.
The molecule `CC1=C(/C=C/C(C)=C/C=C/C(C)=C/C(=O)O)C(C)(C)CCC1` showed a Papp of under 1 ×10⁻⁶ cm/s.
`COc1ccc(-c2noc(CC(=O)O)c2-c2ccc(OC)cc2)cc1` yielded a Papp of under 1 ×10⁻⁶ cm/s.
The figure for `CC1CN(c2cc3c(cc2F)c(=O)c(C(=O)O)cn3-c2ccc(F)cc2F)CCN1` (stereo not given) is 5 ×10⁻⁶ cm/s; for `CN[C@H](CC(C)C)C(=O)N[C@H]1C(=O)N[C@@H](CC(N)=O)C(=O)N[C@H]2C(=O)N[C@H]3C(=O)N[C@H](C(=O)N[C@H](C(=O)O)c4cc(O)cc(O)c4-c4cc3ccc4O)[C@H](O[C@H]3C[C@](C)(N)[C@@H](O)[C@H](C)O3)c3ccc(c(Cl)c3)Oc3cc2cc(c3O[C@@H]2O[C@H](CO)[C@@H](O)[C@H](O)[C@H]2O[C@H]2C[C@](C)(NCc3ccc(-c4ccc(Cl)cc4)cc3)[C@@H](O)[C@H](C)O2)Oc2ccc(cc2Cl)[C@H]1O` it is 12 ×10⁻⁶ cm/s; for `COc1ccc(Cn2c(-c3ccccc3)c(-c3ccccc3)c3c(=N)n(CC(OC)OC)cnc32)cc1` it is 272 ×10⁻⁶ cm/s.
The figure for `CNc1ncc(-c2ccc3c(=O)c(C(=O)O)cn(C4CC4)c3c2C)cc1C` is 3 ×10⁻⁶ cm/s.
With `COc1c(C)c2c(c(O)c1C/C=C(\C)CCC(=O)O)C(=O)OC2`, the Papp was under 1 ×10⁻⁶ cm/s.
The figure for `COc1ccc2c(c1)C(c1ccc(F)cc1)=C(CN1CCCC1)CO2` is 100 ×10⁻⁶ cm/s; for `c1nc(NC2CCCCCC2)c2cc(CNC[C@H]3CCCO3)sc2n1` it is 105 ×10⁻⁶ cm/s; for `CC(C)[C@]12O[C@H]1[C@@H]1O[C@]13[C@]1(O[C@H]1C[C@H]1C4=C(CC[C@@]13C)C(=O)OC4)[C@@H]2O` it is under 1 ×10⁻⁶ cm/s.
With `CC#CCC(C)[C@H](O)/C=C/[C@@H]1[C@H]2c3cccc(CCCC(=O)O)c3O[C@H]2C[C@H]1O` (stereo not given in full), the apparent permeability (Papp) was under 1 ×10⁻⁶ cm/s.
The figure for `COC(=O)C[C@@H](C(=O)OC)n1cnc2c(c(-c3ccccc3)cn2Cc2ccccc2)c1=N` is 26 ×10⁻⁶ cm/s; for `CCOC(=O)c1cc(=O)c2c(OCC(COc3cccc4oc(C(=O)OCC)cc(=O)c34)OC(=O)[C@@H](N)CCCCN)cccc2o1` it is under 1 ×10⁻⁶ cm/s.
`N=c1c2c(-c3ccccc3)c(-c3ccccc3)n(CCc3ccccc3)c2ncn1CCCO`: the apparent permeability coefficient (Papp) was 66 ×10⁻⁶ cm/s.
In turn, `CC(=O)OC(C)OC(=O)C(C)c1ccc(-c2ccccc2)c(F)c1` (stereo not given) yielded an apparent permeability coefficient (Papp) of over 300 ×10⁻⁶ cm/s.
Then `CON=C(C(=O)N[C@@H]1C(=O)N2C(C(=O)O)=C(Cn3ccc(=N)n3CCO)CS[C@H]12)c1csc(N)n1`, with under 1 ×10⁻⁶ cm/s; and `CCO[C@@H]1OC(=O)C[C@@H]1NC(=O)[C@@H]1CCCN1C(=O)[C@@H](NC(=O)c1ccc(N)c(Cl)c1)C(C)(C)C`, with 4 ×10⁻⁶ cm/s.
The figure for `Cn1nnnc1Sc1ncnc2scc(-c3ccc[nH]3)c12` is 126 ×10⁻⁶ cm/s; for `C[C@H]([C@@H](O)c1ccccc1)n1cnc2c(c(-c3ccccc3)c(-c3ccccc3)n2Cc2ccccc2)c1=N` it is 3 ×10⁻⁶ cm/s.
The figure for `CCC(=O)C1=C(c2ccc(F)cc2)N(C(=O)CC)n2cnnc2S1` is 189 ×10⁻⁶ cm/s; for `O=C(O)[C@H]1O[C@@H](Oc2cc3oc(-c4ccc(O)cc4)cc(=O)c3c(O)c2O)[C@H](O)[C@@H](O)[C@@H]1O` it is under 1 ×10⁻⁶ cm/s.
`COc1cc2c(cc1OC)[C@@H](Cc1cc(OC)c(OC)c(OC)c1)[N+](C)(CCCOC(=O)CC/C=C/CCC(=O)OCCC[N+]1(C)CCc3cc(OC)c(OC)cc3[C@H]1Cc1cc(OC)c(OC)c(OC)c1)CC2` (stereo not given in full) displayed an apparent permeability coefficient (Papp) of under 1 ×10⁻⁶ cm/s.
For `CC(=O)Nc1cccc(-n2c(=O)n(C3CC3)c(=O)c3c(Nc4ccc(I)cc4F)n(C)c(=O)c(C)c32)c1`, the Papp amounted to 259 ×10⁻⁶ cm/s.
As to `N#Cc1c[nH]c2c(C(=O)N3CCN(CCc4ccc(F)cc4)CC3)cccc12`, the apparent permeability (Papp) worked out at 121 ×10⁻⁶ cm/s. This Papp lies about 2.1-fold lower than the previous one.
As to `CCCN(CCC)C1CCc2ccc(O)cc2C1` (stereo not given), the Papp is 26 ×10⁻⁶ cm/s.
Then `Cc1nc2c([nH]1)CCN(C(=O)c1ccc(NC(=O)c3ccccc3-c3ccccc3)cc1)c1ccccc1-2`, with 98 ×10⁻⁶ cm/s; and `O=C(NC1CCC(O)CC1)c1ccc(-c2ncc3cnc(-c4ccccc4)cn23)cc1` (stereo not given), with 35 ×10⁻⁶ cm/s; and `CC(=O)NCCNC(=O)c1ccc(-c2ncc3cnc(-c4cccc(F)c4)cn23)cc1`, with 11 ×10⁻⁶ cm/s.
The figure for `CC(C)NC(=O)COc1cccc(-c2nc(Nc3ccc4[nH]ncc4c3)c3ccccc3n2)c1` is 226 ×10⁻⁶ cm/s; for `Cc1cc(-c2nc(C(=O)Nc3cn(C4CCOCC4)nc3C(N)=O)co2)ccn1` it is 43 ×10⁻⁶ cm/s; for `O=C(c1ccc(-c2ncc3cnc(-c4cccc(F)c4)cn23)cc1)N1CC(O)C1` it is 27 ×10⁻⁶ cm/s.
In turn, `CON(C)Cc1ccc(O)c2c1C[C@H]1C[C@H]3[C@H](N(C)C)C(=O)C(C(N)=O)=C(O)[C@@]3(O)C(=O)C1=C2O` came in with a Papp of 2 ×10⁻⁶ cm/s.
Then `CC(C)N(CCCNC(=O)Nc1ccc(C(C)(C)C)cc1)C[C@H]1O[C@@H](n2cc(Br)c3c(N)ncnc32)[C@H](O)[C@@H]1O`, with 6.2 ×10⁻⁶ cm/s.
Then `Cc1ccc(NC(=O)c2ccc(CN3CCN(C)CC3)cc2)cc1Nc1nc(-c2cccnc2)cs1`, with 100 ×10⁻⁶ cm/s; and `CC1=C2C[C@H]3[C@@H](CC[C@@H]4C[C@H](NS(C)(=O)=O)CC[C@@]43C)[C@@H]2CC[C@@]2(C1)O[C@@H]1C[C@H](C)CN[C@H]1[C@H]2C`, with 132 ×10⁻⁶ cm/s.
Molecule `NC(=O)[C@H](Cc1ccccc1)NC(=O)[C@H](Cc1ccccc1)NC(=O)[C@@H]1CCCN1C(=O)[C@@H](N)Cc1ccc(O)cc1` returned an apparent permeability (Papp) of under 1 ×10⁻⁶ cm/s.
In turn, `COc1ccc(Cn2c(-c3ccccc3)c(-c3ccccc3)c3c(=N)n(CCCCO)cnc32)cc1` yielded a Papp of 279 ×10⁻⁶ cm/s.
Then `N=c1c2c(-c3ccccc3)c(-c3ccccc3)n(Cc3ccccc3)c2ncn1CCO`, with 223 ×10⁻⁶ cm/s; and `COC(Cn1cnc2c(c(-c3ccccc3)c(-c3ccccc3)n2CCc2ccccc2)c1=N)OC`, with 236 ×10⁻⁶ cm/s; and `CO/S(=N\S(=O)(=O)c1ccc(Cl)cc1)c1ccc([N+](=O)[O-])cc1` (stereo not given), with 4 ×10⁻⁶ cm/s.
Then `Cn1nnnc1Sc1ncnc2scc(-c3cccc(C(F)(F)F)c3)c12`, with 296 ×10⁻⁶ cm/s.
`COC(=O)[C@]12CCC(C)(C)C[C@@H]1[C@@H]1C(=O)C=C3[C@@]4(C)C=C(C#N)C(=O)C(C)(C)[C@@H]4CC[C@@]3(C)[C@]1(C)CC2` gave a Papp of 8 ×10⁻⁶ cm/s.

The record behind these values is PubChem BioAssay AID1845228.
